Data from US20050267133A1, “Pyrazolopyrimidines as kinase inhibitors” (priority 2002, published 2005).
pIC50: −log10 of the molar value. Structures can show the parent of a compound that is named as a salt.

What follows are molecules tested against T1, GST-TIE2 (intracellular domains of human TIE2) (Homo sapiens, UniProt Q02763) (assay: TIE-2 Enzyme Assay (TIE2-E), LANCE method). Conditions: preactivated GST-TIE2, 1 μM D1-15 peptide, 80 uM ATP, 30 mins at room temperature; pIC50 = -log IC50 in Molar.
T1 construct: made in house
T1 sequence (Q02763 762-1104): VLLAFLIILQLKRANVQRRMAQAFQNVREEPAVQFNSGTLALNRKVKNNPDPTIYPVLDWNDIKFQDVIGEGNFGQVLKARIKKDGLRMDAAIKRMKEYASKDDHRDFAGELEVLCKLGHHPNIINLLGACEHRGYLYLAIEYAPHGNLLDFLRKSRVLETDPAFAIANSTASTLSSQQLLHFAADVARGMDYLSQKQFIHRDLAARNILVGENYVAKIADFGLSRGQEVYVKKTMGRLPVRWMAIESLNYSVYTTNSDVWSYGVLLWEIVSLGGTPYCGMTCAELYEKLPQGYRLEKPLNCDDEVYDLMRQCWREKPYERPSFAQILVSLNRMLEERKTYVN
Type: biochemical
From the text: The TIE-2 enzyme assay used the LANCE method (Wallac) and GST-TIE2, baculovirus expressed recombinant constructs of the intracellular domains of human TIE2 (amino acids 762-1104, GenBank Accession # L06139) tagged by GST). The method measured the ability of the purified enzymes to catalyse the transfer of the γ-phosphate from ATP onto tyrosine residues in a biotinylated synthetic peptide, D1-15 (biotin-C6-LEARLVAYEGWVAGKKKamide). This peptide phosphorylation was detected using the following procedure: for enzyme preactivation, GST-TIE2 was incubated for 30 mins at room temperature with 2 mM ATP, 5 mM MgCl2 and 12.5 mM DTT in 22.5 mM HEPES buffer (pH7.4). Preactivated GST-TIE2 was incubated for 30 mins at room temperature in 96 well plates with 1 μM D1-15 peptide, 80 uM ATP, 10 mM MgCl2, 0.1 mg/ml BSA and the test compound (diluted from a 10 mM stock in DMSO, final DMSO concentration was 2.4%) in 1 mM HEPES (pH7.4). The reaction was stopped by the addition of EDTA (final concentration 45 mM). Streptavidin linked-APC (allophycocyanin, Molecular Probe) and Europium-labeled anti-phosphorylated tyrosine antibody (Wallac) were then added at the final concentration of 17 μg/well and 2.1 μg/well, respectively. The APC signal was measured using an ARVO multilabel counter. (Wallac Berthold Japan). The percent inhibition of activity was calculated relative to blank control wells.
The concentration of test compound that inhibits 50% of activity (IC50) was interpolated using nonlinear regression (Levernberg-Marquardt) and the equation, y=Vmax (1−x/(K+x))+Y2, where “K” was equal to the IC50. The IC50 values were converted to pIC50 values, i.e., −log IC50 in Molar concentration.
Test compounds are employed in free or salt form.

First: OCc1ccc(/C=N/Nc2ncnc3c2cnn3-c2ccccc2)o1 [Example 51, 5-Hydroxymethyl-2-furaldehyde [1-(phenyl)-1H-pyrazolo[3,4-d]pyrimidin-4-yl]hydrazone]
Second: OCc1cc(/C=N/Nc2ncnc3c2cnn3-c2ccccc2)ccc1O [Example 44, 4-Hydroxy-3-hydroxymethylbenzaldehyde (1-phenyl-1H-pyrazolo[3,4-d]pyrimidin-4-yl)hydrazone]
The pIC50 of the first is lower: 5.00 to 6.00 for the first, 6.00 to 7.00 for the second. The second is the more potent here.

Compared with `O=C(NCCCN1CCCC1)c1ccc(/C=N/Nc2ncnc3c2cnn3-c2ccccc2)cc1` [Example 26, 4-{(E)-[(1-phenyl-1H-pyrazolo[3,4-d]pyrimidin-4-yl)hydrazono]methyl}-N-(3-pyrrolidin-1-ylpropyl)benzamide], `O=C(O)c1cccc(/C=N/Nc2ncnc3c2cnn3-c2ccccc2)c1` [Example 39, 3-{(E)-[(1-phenyl-1H-pyrazolo[3,4-d]pyrimidin-4-yl)hydrazono]methyl}benzoic Acid] is lower in pIC50: 6.00 to 7.00 for the first, 5.00 to 6.00 for the second. The first is the more potent here.

What follows are molecules tested against GSK-3β (Homo sapiens, UniProt P49841) (assay: GSK3 scintillation proximity assay (SPA) kinase assay). Conditions: 20 nM kinase, 2.5 uM ATP, biotinylated glycogen synthase peptide, 40 minutes at room temperature; -log IC50 in Molar; read-out: GSK-3 pIC50 (converted).
GSK-3β, sequence (P49841 whole entry, species assumed): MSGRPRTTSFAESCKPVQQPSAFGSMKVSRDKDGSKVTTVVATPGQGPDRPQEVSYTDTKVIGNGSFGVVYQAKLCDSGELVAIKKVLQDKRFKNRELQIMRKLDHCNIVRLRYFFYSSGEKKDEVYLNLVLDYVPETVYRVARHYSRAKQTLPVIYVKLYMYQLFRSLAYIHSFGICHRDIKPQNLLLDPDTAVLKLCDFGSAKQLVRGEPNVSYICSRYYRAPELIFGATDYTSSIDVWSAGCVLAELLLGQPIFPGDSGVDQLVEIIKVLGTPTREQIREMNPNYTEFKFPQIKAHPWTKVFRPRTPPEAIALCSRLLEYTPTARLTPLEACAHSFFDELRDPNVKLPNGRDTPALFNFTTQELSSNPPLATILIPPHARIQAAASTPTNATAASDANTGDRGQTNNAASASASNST
Type: biochemical
From the text: The phosphorylated biotinylated peptide is then captured onto streptavidin coated scintillation proximity assay (SPA) beads from Amersham Technology, where the signal from the ^33P is amplified via the scintillant contained in the beads.
GSK-3β is commercially available or may be cloned and expressed in E. coli using standard techniques to produce soluble, active protein. The production of active protein involves purification in two steps using Metal Chelate and Ion Exchange Chromatography. Protein eluting from Ion Exchange provides >90% pure product that may then be concentrated for use in high throughput screening.
The kinase was assayed at a concentration of 20 nM final in 100 mM HEPES, pH 7.2 containing 10 mM magnesium chloride, 0.1 mg/mL bovine serum albumin, 1 mM dithiothreitol, 0.3 mg/mL heparin, 2.8 uM peptide substrate, 2.5 uM ATP, and 0.2 uCi/well [[…]-^33P]-ATP. After 40 minutes incubation at room temperature, the reaction was stopped by addition of 100 mM EDTA and […] in 100 mM HEPES, pH7.2 followed by an additional solution of diluted Streptavidin coated SPA beads in PBS, pH 7.2 to give a final concentration of 0.25 mg of beads per assay well in a 96-well microtiter plate.
10 mM stock solutions of the compounds of the invention in 100% DMSO are generated as a first step in the screening process. The second step involves the creation of dose response plates where these compounds are diluted 10-fold in 100% DMSO to 1 mM concentrations and subsequently serially diluted 3-fold in 100% DMSO across the plate by automated liquid handling such that the final top concentration of inhibitor is 0.033 mM in the 30 uL kinase assay. The third step involves the creation of the assay plates. This is achieved by transferring 1 uL of the compounds to assay plates by automated liquid handling. The fourth step is to perform the assay as described and count the resulting plates in the Packard TopCount NXT microplate scintillation and luminescence counter.
The final step is data acquisition and analysis where IC50 values are generated for each compound by normalizing curve data to the equation 100*(U1−C2)/(C1−C2) (where U1 is the cpm value, C2 is the background, and C1 is the maximum number of counts), then fitting the normalized data to the equation y=Vmax*(1−(x/(K+x))). The IC50 values were converted to pIC50 values, i.e., −log IC50 in Molar concentration. The data is expressed below in Table 1.

`OCc1ccc(/C=N/Nc2ncnc3c2cnn3-c2ccccc2)o1` [Example 51, 5-Hydroxymethyl-2-furaldehyde [1-(phenyl)-1H-pyrazolo[3,4-d]pyrimidin-4-yl]hydrazone] and `CCc1ccc(/C=N/Nc2ncnc3c2cnn3-c2ccccc2)o1` [Example 57, 5-Ethyl-2-furaldehyde [1-(phenyl)-1H-pyrazolo[3,4-d]pyrimidin-4-yl]hydrazone] fall in the same range of IC50: 1 to 10 µM for the first, 1 to 10 µM for the second.

`Clc1cc(/C=N/Nc2ncnc3c2cnn3-c2ccccc2)ccn1` [Example 14, 2-chloroisonicotinaldehyde (1-phenyl-1H-pyrazolo[3,4-d]pyrimidin-4-yl)hydrazone] and `COc1cc(/C=N/Nc2ncnc3c2cnn3-c2ccccc2)ccn1` [Example 15, 2-methoxyisonicotinaldehyde (1-phenyl-1H-pyrazolo[3,4-d]pyrimidin-4-yl)hydrazone] fall in the same range of IC50: 0.1 to 1 µM for the first, 0.1 to 1 µM for the second.

`O=C(NCCCN1CCCC1)c1ccc(/C=N/Nc2ncnc3c2cnn3-c2ccccc2)cc1` [Example 26, 4-{(E)-[(1-phenyl-1H-pyrazolo[3,4-d]pyrimidin-4-yl)hydrazono]methyl}-N-(3-pyrrolidin-1-ylpropyl)benzamide] and `O=S(=O)(NCCCN1CCCC1)c1ccc(/C=N/Nc2ncnc3c2cnn3-c2ccccc2)cc1` [Example 23, 4-{(E)-[(1-phenyl-1H-pyrazolo[3,4-d]pyrimidin-4-yl)hydrazono]methyl}-N-(3-pyrrolidin-1-ylpropyl)benzenesulfonamide] cannot be ordered by IC50: < 0.1 µM for the first, < 0.1 µM for the second.

First: C(=N\Nc1ncnc2c1cnn2-c1ccccc1)/c1cnc2ccccc2c1 [Example 4, Quinoline-3-carbaldehyde (1-phenyl-1H-pyrazolo[3,4-d]pyrimidin-4-yl)hydrazone]
Second: C(=N\Nc1ncnc2c1cnn2-c1ccccc1)/c1ccnc2ccccc12 [Example 62, 4-Quinolinecarboxaldehyde [1-(phenyl)-1H-pyrazolo[3,4-d]pyrimidin-4-yl]hydrazone]
The IC50 of the first is lower: 0.1 to 1 µM for the first, 1 to 10 µM for the second.

Compared with `O=C(NCCN1CCOCC1)c1cccc(/C=N/Nc2ncnc3c2cnn3-c2ccccc2)c1` [Example 42, N-(2-morpholin-4-ylethyl)-3-{(E)-[(1-phenyl-1H-pyrazolo[3,4-d]pyrimidin-4-yl)hydrazono]methyl}benzamide], `CN(C)CCNC(=O)c1cccc(/C=N/Nc2ncnc3c2cnn3-c2ccccc2)c1` [Example 40, N-[2-(dimethylamino)ethyl]-3-{(E)-[(1-phenyl-1H-pyrazolo[3,4-d]pyrimidin-4-yl)hydrazono]methyl}benzamide] is lower in IC50: 0.1 to 1 µM for the first, < 0.1 µM for the second.

`OCc1cc(/C=N/Nc2ncnc3c2cnn3-c2ccccc2)ccc1O` [Example 44, 4-Hydroxy-3-hydroxymethylbenzaldehyde (1-phenyl-1H-pyrazolo[3,4-d]pyrimidin-4-yl)hydrazone] and `Nc1ccc(/C=N/Nc2ncnc3c2cnn3-c2ccccc2)cn1` [Example 12, 6-aminonicotinaldehyde (1-phenyl-1H-pyrazolo[3,4-d]pyrimidin-4-yl)hydrazone trifluoroacetate] fall in the same range of IC50: 0.1 to 1 µM for the first, 0.1 to 1 µM for the second.

First: O=C(O)c1cccc(/C=N/Nc2ncnc3c2cnn3-c2ccccc2)c1 [Example 39, 3-{(E)-[(1-phenyl-1H-pyrazolo[3,4-d]pyrimidin-4-yl)hydrazono]methyl}benzoic Acid]
Second: COC(=O)c1cccc(/C=N/Nc2ncnc3c2cnn3-c2ccccc2)c1 [Example 3, Methyl 3-{(E)-[(1-phenyl-1H-pyrazolo[3,4-d]pyrimidin-4-yl)hydrazono]methyl}benzoate]
The IC50 of the first is higher: 1 to 10 µM for the first, 0.1 to 1 µM for the second.

First: COc1ccc(/C=N/Nc2ncnc3c2cnn3-c2ccccc2)cn1 [Example 17, 6-methoxynicotinaldehyde (1-phenyl-1H-pyrazolo[3,4-d]pyrimidin-4-yl)hydrazone]
Second: Clc1ccc(/C=N/Nc2ncnc3c2cnn3-c2ccccc2)cn1 [Example 16, 6-chloronicotinaldehyde (1-phenyl-1H-pyrazolo[3,4-d]pyrimidin-4-yl)hydrazone]
The IC50 of the first is higher: 0.1 to 1 µM for the first, < 0.1 µM for the second.

Compared with `O=C(NCc1ccccn1)c1ccc(/C=N/Nc2ncnc3c2cnn3-c2ccccc2)cc1` [Example 28, 4-{(E)-[(1-phenyl-1H-pyrazolo[3,4-d]pyrimidin-4-yl)hydrazono]methyl}-N-(pyridin-2-ylmethyl)benzamide], `CC(=O)Nc1ccc(/C=N/Nc2ncnc3c2cnn3-c2ccccc2)cn1` [Example 10, N-(5-{(E)-[2-(1-phenyl-1H-pyrazolo[3,4-d]pyrimidin-4-yl)hydrazono]methyl}pyridin-2-yl)acetamide] is lower in IC50: 0.1 to 1 µM for the first, < 0.1 µM for the second.

`C(=N\Nc1ncnc2c1cnn2-c1ccccc1)/C1CCNCC1` [Example 9, Piperidine-4-carbaldehyde (1-phenyl-1H-pyrazolo[3,4-d]pyrimidin-4-yl)hydrazone trifluoroacetate] and `CC(C)(C)OC(=O)N1CCC(/C=N/Nc2ncnc3c2cnn3-c2ccccc2)CC1` [Example 8, tert-butyl 4-{(E)-[(1-phenyl-1H-pyrazolo[3,4-d]pyrimidin-4-yl)hydrazono]methyl}piperidine-1-carboxylate] fall in the same range of IC50: 0.1 to 1 µM for the first, 0.1 to 1 µM for the second.

First: Cc1ccc(/C=N/Nc2ncnc3c2cnn3-c2ccccc2)o1 [Example 59, 5-Methyl-2-furaldehyde [1-(phenyl)-1H-pyrazolo[3,4-d]pyrimidin-4-yl]hydrazone]
Second: CN(C)c1ccc(/C=N/Nc2ncnc3c2cnn3-c2ccccc2)cn1 [Example 13, 6-(dimethylamino)nicotinaldehyde (1-phenyl-1H-pyrazolo[3,4-d]pyrimidin-4-yl)hydrazone]
The IC50 of the first is lower: 0.1 to 1 µM for the first, 1 to 10 µM for the second.

`CN(C)CCNS(=O)(=O)c1ccc(/C=N/Nc2ncnc3c2cnn3-c2ccccc2)cc1` [Example 22, N[2-(dimethylamino)ethyl]-4-[{(E)[(1-phenyl-1H-pyrazolo[3,4-d]pyrimidin-4-yl)hydrazono]methyl}benzenesulfonamide hydrochloride] and `O=S(=O)(NCCN1CCOCC1)c1ccc(/C=N/Nc2ncnc3c2cnn3-c2ccccc2)cc1` [Example 21, N-(2-morpholin-4-ylethyl)-4-{(E)-[(1-phenyl-1H-pyrazolo[3,4-d]pyrimidin-4-yl)hydrazono]methyl}benzenesulfonamide] cannot be ordered by IC50: < 0.1 µM for the first, < 0.1 µM for the second.

First: CS(=O)(=O)CCNC(=O)c1cccc(/C=N/Nc2ncnc3c2cnn3-c2ccccc2)c1 [Example 41]
Second: CN(C)CCNc1ccc(/C=N/Nc2ncnc3c2cnn3-c2ccccc2)cn1 [Example 19, 6-{[2-(dimethylamino)ethyl]amino}nicotinaldehyde (1-phenyl-1H-pyrazolo[3,4-d]pyrimidin-4-yl)hydrazone hydrochloride]
The IC50 of the first is higher: 0.1 to 1 µM for the first, < 0.1 µM for the second.

For `CN(C)CCOc1ccc(/C=N/Nc2ncnc3c2cnn3-c2ccccc2)cn1` [Example 18, 6-[2-(dimethylamino)ethoxy]nicotinaldehyde (1-phenyl-1H-pyrazolo[3,4-d]pyrimidin-4-yl)hydrazone], the IC50 was 0.1 to 1 µM.
